In PubChem BioAssay (NCI):
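Each compound was tested at five concentrations against cells in 96-well plates for 48 hours. The concentration for full growth arrest is given as TGI.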

Key:
Test in all cases: DTP human tumour cell line panel, 48 h
A498 renal = test system: A498 renal
CAKI-1 renal = test system: CAKI-1 renal
KM20L2 colon = test system: KM20L2 colon
M19-MEL melanoma = test system: M19-MEL melanoma
OVCAR-5 ovarian = test system: OVCAR-5 ovarian
HL-60(TB) leukemia = test system: HL-60(TB) leukemia
UACC-257 melanoma = test system: UACC-257 melanoma
LOX IMVI melanoma = test system: LOX IMVI melanoma
SK-MEL-28 melanoma = test system: SK-MEL-28 melanoma
U251 CNS = test system: U251 CNS
NCI-H460 lung = test system: NCI-H460 lung
SF-295 CNS = test system: SF-295 CNS
NCI-H522 lung = test system: NCI-H522 lung
HOP-92 NSCLC = test system: HOP-92 NSCLC
ACHN renal = test system: ACHN renal
CCRF-CEM leukemia = test system: CCRF-CEM leukemia
786-0 renal = test system: 786-0 renal
HOP-18 NSCLC = test system: HOP-18 NSCLC
HCT-116 colon = test system: HCT-116 colon
OVCAR-4 ovarian = test system: OVCAR-4 ovarian
TK-10 renal = test system: TK-10 renal
RXF 393 renal = test system: RXF 393 renal
DMS 273 small cell lung = test system: DMS 273 small cell lung
SF-268 CNS = test system: SF-268 CNS
SN12C renal = test system: SN12C renal
SK-OV-3 ovarian = test system: SK-OV-3 ovarian
LXFL 529 NSCLC = test system: LXFL 529 NSCLC
OVCAR-8 ovarian = test system: OVCAR-8 ovarian
KM12 colon = test system: KM12 colon
HOP-62 NSCLC = test system: HOP-62 NSCLC
SF-539 CNS = test system: SF-539 CNS
NCI-H226 lung = test system: NCI-H226 lung
A549 NSCLC = test system: A549 NSCLC
NCI-H23 lung = test system: NCI-H23 lung
COLO 205 colon = test system: COLO 205 colon
SNB-19 CNS = test system: SNB-19 CNS
IGROV1 ovarian = test system: IGROV1 ovarian
MALME-3M melanoma = test system: MALME-3M melanoma
HCC-2998 colon = test system: HCC-2998 colon
XF 498 CNS = test system: XF 498 CNS
SK-MEL-2 melanoma = test system: SK-MEL-2 melanoma
SR leukemia = test system: SR leukemia
SW-620 colon = test system: SW-620 colon
HT29 colon = test system: HT29 colon
MOLT-4 leukemia = test system: MOLT-4 leukemia
K-562 leukemia = test system: K-562 leukemia
EKVX NSCLC = test system: EKVX NSCLC
SNB-78 CNS = test system: SNB-78 CNS
SNB-75 CNS = test system: SNB-75 CNS
M14 melanoma = test system: M14 melanoma
SK-MEL-5 melanoma = test system: SK-MEL-5 melanoma
UACC-62 melanoma = test system: UACC-62 melanoma
RPMI-8226 leukemia = test system: RPMI-8226 leukemia
HCT-15 colon = test system: HCT-15 colon
UO-31 renal = test system: UO-31 renal

## COC(=O)C(=NNc1ccccc1[N+](=O)[O-])C(=O)OC
A498 renal
  TGI: > 100 µM
CAKI-1 renal
  TGI: > 100 µM
KM20L2 colon
  TGI: > 100 µM
M19-MEL melanoma
  TGI: > 100 µM
OVCAR-5 ovarian
  TGI: > 100 µM
HL-60(TB) leukemia
  TGI: > 100 µM
UACC-257 melanoma
  TGI: > 100 µM
LOX IMVI melanoma
  TGI: > 100 µM
SK-MEL-28 melanoma
  TGI: > 100 µM
U251 CNS
  TGI: > 100 µM
NCI-H460 lung
  TGI: > 100 µM
SF-295 CNS
  TGI: > 100 µM
NCI-H522 lung
  TGI: > 100 µM
HOP-92 NSCLC
  TGI: > 100 µM
ACHN renal
  TGI: > 100 µM
CCRF-CEM leukemia
  TGI: > 100 µM
786-0 renal
  TGI: > 100 µM
HOP-18 NSCLC
  TGI: > 100 µM
HCT-116 colon
  TGI: > 100 µM
OVCAR-4 ovarian
  TGI: > 100 µM
TK-10 renal
  TGI: > 100 µM
RXF 393 renal
  TGI: > 100 µM
DMS 273 small cell lung
  TGI: > 100 µM
SF-268 CNS
  TGI: > 100 µM
SN12C renal
  TGI: > 100 µM
SK-OV-3 ovarian
  TGI: > 100 µM
LXFL 529 NSCLC
  TGI: > 100 µM
OVCAR-8 ovarian
  TGI: > 100 µM
KM12 colon
  TGI: > 100 µM
HOP-62 NSCLC
  TGI: > 100 µM
SF-539 CNS
  TGI: > 100 µM
NCI-H226 lung
  TGI: > 100 µM
A549 NSCLC
  TGI: > 100 µM
NCI-H23 lung
  TGI: > 100 µM
COLO 205 colon
  TGI: > 100 µM
SNB-19 CNS
  TGI: > 100 µM
IGROV1 ovarian
  TGI: > 100 µM
MALME-3M melanoma
  TGI: > 100 µM
HCC-2998 colon
  TGI: > 100 µM
XF 498 CNS
  TGI: > 100 µM
SK-MEL-2 melanoma
  TGI: > 100 µM
SR leukemia
  TGI: > 100 µM
SW-620 colon
  TGI: > 100 µM
HT29 colon
  TGI: > 100 µM
MOLT-4 leukemia
  TGI: > 100 µM
K-562 leukemia
  TGI: > 100 µM
EKVX NSCLC
  TGI: > 100 µM

## O=C(CSc1nnc(Cc2ccccc2)o1)Nc1ccc(Cl)cc1[N+](=O)[O-]
KM20L2 colon
  TGI: 45.9 µM
M19-MEL melanoma
  TGI: 34.8 µM
SNB-78 CNS
  TGI: 47.6 µM
HL-60(TB) leukemia
  TGI: 61.5 µM
UACC-257 melanoma
  TGI: 36.3 µM
LOX IMVI melanoma
  TGI: 26.3 µM
SK-MEL-28 melanoma
  TGI: 29 µM
U251 CNS
  TGI: 34.8 µM
SF-295 CNS
  TGI: 34.2 µM
NCI-H522 lung
  TGI: 9.26 µM
ACHN renal
  TGI: 25.2 µM
CCRF-CEM leukemia
  TGI: 54.4 µM
SNB-75 CNS
  TGI: 39.5 µM
M14 melanoma
  TGI: 32.9 µM
786-0 renal
  TGI: 31 µM
HOP-18 NSCLC
  TGI: 28.3 µM
HCT-116 colon
  TGI: 27.7 µM
SK-MEL-5 melanoma
  TGI: 30.9 µM
UACC-62 melanoma
  TGI: 30.5 µM
OVCAR-4 ovarian
  TGI: 33.9 µM
RPMI-8226 leukemia
  TGI: 49.6 µM
TK-10 renal
  TGI: 30.8 µM
RXF 393 renal
  TGI: 33.4 µM
DMS 273 small cell lung
  TGI: 33.9 µM
SF-268 CNS
  TGI: 40.2 µM
SN12C renal
  TGI: 31.4 µM
SK-OV-3 ovarian
  TGI: > 100 µM
LXFL 529 NSCLC
  TGI: 40.8 µM
OVCAR-8 ovarian
  TGI: > 100 µM
HOP-62 NSCLC
  TGI: 31.3 µM
NCI-H226 lung
  TGI: 47.6 µM
A549 NSCLC
  TGI: 35.6 µM
NCI-H23 lung
  TGI: 36 µM
COLO 205 colon
  TGI: 46.4 µM
SNB-19 CNS
  TGI: 31 µM
MALME-3M melanoma
  TGI: 30.2 µM
HCT-15 colon
  TGI: 32.2 µM
XF 498 CNS
  TGI: 31.3 µM
SK-MEL-2 melanoma
  TGI: 29.8 µM
UO-31 renal
  TGI: 49.4 µM
SR leukemia
  TGI: > 100 µM
SW-620 colon
  TGI: 53.8 µM
HT29 colon
  TGI: 49.2 µM
MOLT-4 leukemia
  TGI: > 100 µM
K-562 leukemia
  TGI: 98.7 µM
EKVX NSCLC
  TGI: 40.1 µM
